# Reference: PubChem BioAssay (NCI)
# Several values for one entry are separate records, joined by “and”; a condition that tells them apart may be missing. Equal values may be shown once.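 Each compound was tested at five concentrations against cells in 96-well plates for 48 hours. Here, GI50 denotes the concentration required for 50% inhibition of growth. TGI: total growth inhibition.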
# How the values were obtained:
# Test in all cases: DTP human tumour cell line panel, 48 h
# OVCAR-3 ovarian = tested on: OVCAR-3 ovarian
# SK-OV-3 ovarian = tested on: SK-OV-3 ovarian
# CCRF-CEM leukemia = tested on: CCRF-CEM leukemia
# M14 melanoma = tested on: M14 melanoma
# HOP-92 NSCLC = tested on: HOP-92 NSCLC
# NCI-H522 lung = tested on: NCI-H522 lung
# IGROV1 ovarian = tested on: IGROV1 ovarian
# HS 578T breast = tested on: HS 578T breast
# SNB-19 CNS = tested on: SNB-19 CNS
# UO-31 renal = tested on: UO-31 renal
SMILES,GI50 (OVCAR-3 ovarian),TGI (OVCAR-3 ovarian),GI50 (SK-OV-3 ovarian),TGI (SK-OV-3 ovarian),GI50 (CCRF-CEM leukemia),TGI (CCRF-CEM leukemia),GI50 (M14 melanoma),TGI (M14 melanoma),GI50 (HOP-92 NSCLC),TGI (HOP-92 NSCLC),GI50 (NCI-H522 lung),TGI (NCI-H522 lung),GI50 (IGROV1 ovarian),TGI (IGROV1 ovarian),GI50 (HS 578T breast),TGI (HS 578T breast),GI50 (SNB-19 CNS),TGI (SNB-19 CNS),GI50 (UO-31 renal),TGI (UO-31 renal)
COc1cc(OCc2cccc(-c3ccccc3)c2C)cc(OC)c1CN1CCCCC1C(=O)NCCOCCOCCN (stereo unspecified),2.11 µM,5.03 µM,10.7 µM,24 µM,2.68 µM,8.9 µM,1.84 µM,3.57 µM,1.57 µM,5.45 µM,1.88 µM,4.08 µM,3.06 µM,12.1 µM,1.93 µM,4.56 µM,2.95 µM,10.6 µM,10.6 µM,22.9 µM
Nc1c(C(=O)c2cccc(C#CCN3CCCCC3)c2)cnn1-c1ccc(F)cc1,> 25 µM,> 25 µM,> 25 µM,> 25 µM,> 25 µM,> 25 µM,> 25 µM,> 25 µM,10.3 µM,> 25 µM,> 18.9 µM,> 25 µM,> 25 µM,> 25 µM,> 25 µM,> 25 µM,> 25 µM,> 25 µM,16.2 µM,> 25 µM
CCCc1nc(Cl)nc(Cl)c1Cl,,0.534 µM,,6.95 µM,,0.0731 µM,,1.13 µM,,0.532 µM,,1.26 µM,,2.14 µM,,8.46 µM,,2.57 µM,,0.111 µM
Cc1cc(CCl)c(C)cc1CCl,1.76 µM,4.04 µM,4.92 µM,23 µM,0.351 µM,5.61 µM,3.54 µM,30.5 µM,2.52 µM,9.55 µM,1.7 µM,3.57 µM,1.47 µM,6.25 µM,2.4 µM,8.21 µM,3.75 µM,17.6 µM,1.53 µM,3.71 µM
COc1cc([C@@H]2c3cc4c(cc3[C@H](OC(C)=O)[C@H]3COC(=O)[C@@H]23)OCO4)cc(OC)c1OC,0.317 µM,,0.334 µM,> 100 µM,0.338 µM,> 100 µM,0.242 µM,5.3 µM,2.55 µM,> 100 µM,0.15 µM,0.448 µM,0.401 µM,> 62.5 µM,0.253 µM,0.682 µM,0.393 µM,> 100 µM,0.493 µM,> 100 µM
COc1ccc2c(c1)CN([C@@H](C)[C@H]1CC[C@H]3[C@@H]4CC[C@H]5C[C@@H](O)CC[C@]5(C)[C@H]4CC[C@]13C)CO2,,18 µM,,3.56 µM,,6.19 µM,,3.54 µM,,3.71 µM,,4.21 µM,,14.6 µM,,4.14 µM,,4.1 µM,,3.39 µM
C=C1C(=O)O[C@H]2[C@H]1CC/C(COC(=O)N[C@H]1C[C@H](O[C@H]3C[C@](O)(C(=O)CO)Cc4c(O)c5c(c(O)c43)C(=O)c3c(OC)cccc3C5=O)O[C@@H](C)[C@H]1O)=C\CC[C@@]1(C)O[C@@H]21,2.2 µM,7.8 µM,> 50 µM,> 50 µM,0.672 µM,2.28 µM,8.36 µM,22.5 µM,0.838 µM,2.28 µM,0.772 µM,1.68 µM,5.77 µM,19 µM,9.93 µM,34 µM,13.2 µM,> 50 µM,> 50 µM,> 50 µM
CCN1[C@@H](C(=O)NC23CCC(C(=O)O)(CC2)CC3)[C@H](c2cccc(Cl)c2F)[C@]2(C(=O)Nc3cc(Cl)ccc32)C12CCCCC2,2.53 µM,7.74 µM,3.03 µM,12 µM,2.98 µM,13.2 µM,3.22 µM,13.1 µM,2.15 µM,6.45 µM,2.62 µM,8.24 µM,0.99 µM,15.5 µM,2.05 µM,10.1 µM,3.56 µM,15.2 µM,0.0779 µM,3.6 µM
COc1cc(C2=NN(C(C)=O)C(c3cc(OC)c(OC)c(OC)c3)C2)ccc1O (stereo unspecified),0.289 µM,5.21 µM,0.307 µM,> 100 µM,0.342 µM,,0.342 µM,> 100 µM,67 µM,> 100 µM,0.273 µM,> 35.4 µM,0.584 µM,> 100 µM,0.275 µM,,0.491 µM,> 100 µM,0.809 µM,> 100 µM
CCCCCCNCCCNc1c2cc(OC)ccc2nc2cccc([N+](=O)[O-])c12,0.309 µM,0.297 µM and 1.05 µM,0.266 µM,4.94 µM and 0.961 µM,0.118 µM,0.289 µM and 0.538 µM,0.143 µM,0.285 µM and 0.293 µM,0.239 µM,0.534 µM and 0.655 µM,0.0174 µM,0.104 µM and 0.0516 µM,0.223 µM,,0.242 µM,1.47 µM and 0.786 µM,0.206 µM,3.86 µM and 1.02 µM,0.187 µM,0.703 µM and 0.431 µM
